Reference: PubChem BioAssay AID2060333 (Molecular Pharmacology Branch, DTP, NCI, 2025)
pIC50: −log10 of the molar value.

Test system: 845751-090-R-J2-PDC tumor spheroid viability
Test: Anticancer human tumor 845751-090-R-J2-PDC patient-derived head and neck squamous carcinoma cell line growth inhibition [IpAb]
Settings: spheroids with HUVEC and MSC; for pIC50: curve of first compound; for viability, T/C: stronger effect = lower value
How it was run: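 Spheroids of 60% malignant cells, 25% HUVEC and 15% MSC were exposed to targeted agents combined with ipatasertib or abemaciclib. Doses started at or near clinical Cmax (10 microM when unknown) and fell in half-log steps.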

[1] = second compound 0.1 µM, first compound 0.0316 µM
[2] = second compound 0.1 µM, first compound 0.1 µM
[3] = second compound 0.1 µM, first compound 0.316 µM
[4] = second compound 0.1 µM, first compound 1 µM
[5] = second compound 0.1 µM, first compound 3.16 µM
[6] = second compound 0.1 µM, first compound 10 µM
[7] = second compound 0.316 µM, first compound 0.0316 µM
[8] = second compound 0.316 µM, first compound 0.1 µM
[9] = second compound 0.316 µM, first compound 0.316 µM
[10] = second compound 0.316 µM, first compound 1 µM
[11] = second compound 0.316 µM, first compound 3.16 µM
[12] = second compound 0.316 µM, first compound 10 µM
[13] = second compound 1 µM, first compound 0.0316 µM
[14] = second compound 1 µM, first compound 0.1 µM
[15] = second compound 1 µM, first compound 0.316 µM
[16] = second compound 1 µM, first compound 1 µM
[17] = second compound 1 µM, first compound 3.16 µM
[18] = second compound 1 µM, first compound 10 µM
[19] = second compound 3.16 µM, first compound 0.0316 µM
[20] = second compound 3.16 µM, first compound 0.1 µM
[21] = second compound 3.16 µM, first compound 0.316 µM
[22] = second compound 3.16 µM, first compound 1 µM
[23] = second compound 3.16 µM, first compound 3.16 µM
[24] = second compound 3.16 µM, first compound 10 µM
[25] = second compound 10 µM, first compound 0.0316 µM
[26] = second compound 10 µM, first compound 0.1 µM
[27] = second compound 10 µM, first compound 0.316 µM
[28] = second compound 10 µM, first compound 1 µM
[29] = second compound 10 µM, first compound 3.16 µM
[30] = second compound 10 µM, first compound 10 µM
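Further: spheroids exposed to compounds for 7 days before readout.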
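Wherever viability, T/C is given: CTG3D luminescence normalised so that 100% = DMSO vehicle control.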

| Compound | pIC50 (second compound 0.1 µM) | pIC50 (second compound 0.316 µM) | pIC50 (second compound 1 µM) | pIC50 (second compound 3.16 µM) | pIC50 (second compound 10 µM) | viability, T/C [1] | viability, T/C [2] | viability, T/C [3] | viability, T/C [4] | viability, T/C [5] | viability, T/C [6] | viability, T/C [7] | viability, T/C [8] | viability, T/C [9] | viability, T/C [13] | viability, T/C [14] | viability, T/C [19] | viability, T/C [20] | viability, T/C [25] | viability, T/C [26] | also measured |
| --- | --- | --- | --- | --- | --- | --- | --- | --- | --- | --- | --- | --- | --- | --- | --- | --- | --- | --- | --- | --- | --- |
| C=CC(=O)N1CCN(c2nc(=O)n(-c3c(C)ccnc3C(C)C)c3nc(-c4c(O)cccc4F)c(F)cc23)C(C)C1 (stereo not given) + CC(C)NCC(C(=O)N1CCN(c2ncnc3c2C(C)CC3O)CC1)c1ccc(Cl)cc1 | > 7.50 | > 7.50 | > 7.50 | > 7.50 | > 7.50 | 47.1% | 46.7% | 28.9% | 36.3% | 22.1% | 10.7% | 28.2% | 30.3% | 21.2% | 22.9% | 25% | 21.7% | 18.3% | 15.2% | 12.3% | viability, T/C [10]: 24.9%; viability, T/C [11]: 21.9%; viability, T/C [12]: 13.8%; viability, T/C [15]: 21.5%; viability, T/C [16]: 28.2%; viability, T/C [17]: 19.3%; viability, T/C [18]: 7.88%; viability, T/C [21]: 22.9%; viability, T/C [22]: 19.7%; viability, T/C [23]: 11.9%; viability, T/C [24]: 5.86%; viability, T/C [27]: 12.2%; viability, T/C [28]: 12.5%; viability, T/C [29]: 8.32%; viability, T/C [30]: 3.28% |
| Cn1ncc(Cl)c1-c1cc(C(=O)NC(CN)Cc2cccc(F)c2)sc1Cl (stereo not given) + CC(C)NCC(C(=O)N1CCN(c2ncnc3c2C(C)CC3O)CC1)c1ccc(Cl)cc1 | 6.73 | > 7.50 | > 7.50 | > 7.50 | > 7.50 | 84.6% | 59.2% | 33.2% | 37% | 12.1% | 0.32% | 46.6% | 35.4% | 37.3% | 39.3% | 37.9% | 29% | 27% | 17.5% | 16.1% | viability, T/C [10]: 34.4%; viability, T/C [11]: 13.6%; viability, T/C [12]: 0.51%; viability, T/C [15]: 37.2%; viability, T/C [16]: 27.1%; viability, T/C [17]: 8.86%; viability, T/C [18]: 0.24%; viability, T/C [21]: 26.3%; viability, T/C [22]: 24.2%; viability, T/C [23]: 8.88%; viability, T/C [24]: 0.54%; viability, T/C [27]: 24.5%; viability, T/C [28]: 13.5%; viability, T/C [29]: 7.33%; viability, T/C [30]: 0.88% |
| Cn1ncnc1[C@H]1c2n[nH]c(=O)c3cc(F)cc(c23)N[C@@H]1c1ccc(F)cc1 + CC(C)NCC(C(=O)N1CCN(c2ncnc3c2C(C)CC3O)CC1)c1ccc(Cl)cc1 | 7.59 | > 9.50 | > 9.50 | > 9.50 | > 9.50 | 54.1% | 33.6% |  |  |  |  | 26.1% | 22.3% |  | 22.9% | 20% | 14.7% | 14.8% | 11.6% | 9.65% | viability, T/C (second compound 0.1 µM, first compound 0.000316 µM): 53.9%; viability, T/C (second compound 0.1 µM, first compound 0.001 µM): 88.8%; viability, T/C (second compound 0.1 µM, first compound 0.00316 µM): 57%; viability, T/C (second compound 0.1 µM, first compound 0.01 µM): 49.1%; viability, T/C (second compound 0.316 µM, first compound 0.000316 µM): 38.1%; viability, T/C (second compound 0.316 µM, first compound 0.001 µM): 25%; viability, T/C (second compound 0.316 µM, first compound 0.00316 µM): 34.4%; viability, T/C (second compound 0.316 µM, first compound 0.01 µM): 29.6%; viability, T/C (second compound 1 µM, first compound 0.000316 µM): 30.1%; viability, T/C (second compound 1 µM, first compound 0.001 µM): 27.1%; viability, T/C (second compound 1 µM, first compound 0.00316 µM): 23.8%; viability, T/C (second compound 1 µM, first compound 0.01 µM): 28.5%; viability, T/C (second compound 3.16 µM, first compound 0.000316 µM): 29.6%; viability, T/C (second compound 3.16 µM, first compound 0.001 µM): 22.4%; viability, T/C (second compound 3.16 µM, first compound 0.00316 µM): 20.2%; viability, T/C (second compound 3.16 µM, first compound 0.01 µM): 24.8%; viability, T/C (second compound 10 µM, first compound 0.000316 µM): 14.8%; viability, T/C (second compound 10 µM, first compound 0.001 µM): 16.9%; viability, T/C (second compound 10 µM, first compound 0.00316 µM): 12.3%; viability, T/C (second compound 10 µM, first compound 0.01 µM): 10.7% |
